Assay results from patent US7507727B2, “Substituted quinobenzoxazine analogs and methods of using thereof” (Cylene Pharmaceuticals, Inc., priority 2003, dated 2009).

What follows are compounds tested against c-Myc template DNA (c-myc quadruplex) (assay: Quadruplex binding / stop assay (Taq polymerase arrest, capillary electrophoresis)). Conditions: read-out: S DATA; Table 1D, stop assay data.
From the text: A high throughput polymerase arrest assay has been developed. The assay comprises contacting a template nucleic acid, often DNA, with a primer, which also is often DNA; contacting the primer/template complex with a compound described herein (also referred to as a “test compound”); contacting the primer/template complex with a polymerase; and separating reaction products. The assay often includes the step of denaturing the primer/template complex mixture and then renaturing the complex, which often is carried out before a test molecule is added to the system. Multiple assays often are carried out using varying concentrations of a test compound, such that an IC50 value can be obtained, for example. The reaction products often include extended primers of different lengths.
Thus, the reaction mixture often includes at least two reaction products when a test compound interacts with a quadruplex structure in the template, one having a completely extended primer and one having an incompletely extended primer, and these two reaction products are separated. The products may be separated using any convenient separation method, such as mass spectrometry and in one embodiment, capillary electrophoresis.
In an embodiment, a primer oligonucleotide covalently linked to a fluorescent label is contacted with template DNA. The resulting complex is contacted with a test molecule and then contacted with a polymerase capable of extending the primer. The reaction products then are separated and detected by capillary electrophoresis. A longer primer sequence was used for practicing this embodiment as compared to embodiments where the primer includes no covalently-linked fluorophore or where capillary electrophoresis is not utilized for separation. Deoxynucleotides are added at any stage of the assay before the separation, often when the primer is contacted with the template DNA. The template DNA/primer complex often is denatured (e.g., by increasing the temperature of the system) and then renatured (e.g., by cooling the system) before a test compound is added).
The mixture was denatured at 95° C. for 5 minutes and, after cooling down to room temperature, was incubated at 37° C. for 15 minutes.
After cooling down to room temperature, 1 mM KCl and the test compound (various concentrations) were added and the mixture incubated for 15 minutes at room temperature. The primer extension was performed by adding 10 mM KCl and Taq DNA Polymerase (2.5 U/reaction, Promega) and incubating at 70° C. for 30 minutes. The reaction was stopped by adding 1 μl of the reaction mixture to 10 μl Hi-Di Formamide mixed and 0.25 μl LIZ120 size standard. Hi-Di Formamide and LIZ120 size standard were purchased from Applied Biosystems.
The partially extended quadruplex arrest product was between 61 or 62 bases long and the full-length extended product was 99 bases long. The products were separated and analyzed using capillary electrophoresis. Capillary electrophoresis was performed using an ABI PRISM 3100-Avant Genetic Analyzer.
Stop Assays. […] A fluorescently labeled primer DNA is then annealed to the 3′ end of the template DNA. A DNA polymerase such as Taq polymerase is then introduced to synthesize a complementary strand of DNA by extending from the fluorescently labeled primer. When the progress of the Taq polymerase is unhindered, it synthesizes a full-length copy of the template.
These products are visualized by capillary electrophoresis.

SMILES | IC50 [µM]
CC(C)N1CCN(c2c(F)cc3c(=O)c(C(=O)NCC(C)(C)CN(C)C)cn4c3c2Oc2ccccc2-4)CC1 [compound 1568] | > 15
CC(C)N1CCN(c2c(F)cc3c(=O)c(C(=O)NCCCCN(C)C)cn4c3c2Oc2ccccc2-4)CC1 [compound 1567] | > 15
CC(C)(C)OC(=O)NC1CCN(c2c(F)cc3c(=O)c(C(=O)NCCCCN)cn4c3c2Oc2ccccc2-4)C1 (stereo not shown) [compound 1589] | > 15
O=C(NCCN1CCCC1)c1cn2c3c(c(SCCc4cnccn4)c(F)cc3c1=O)Oc1ccccc1-2 [compound 1785] | > 15
CN1CCN(CCCNC(=O)c2cn3c4c(c(N5CCC(NC(=O)OC(C)(C)C)C5)c(F)cc4c2=O)Oc2ccccc2-3)CC1 (stereo not shown) [compound 1585] | > 15
CN(C)CCCCNc1ccc2c(=O)c(C(=O)NC3CC(C)(C)NC(C)(C)C3)cn3c2c1Oc1cc2ccccc2cc1-3 [compound 1543] | 1.75
CC(C)N1CCN(c2c(F)cc3c(=O)c(C(=O)NCCCN4CCOCC4)cn4c3c2Oc2ccc(Cl)cc2-4)CC1 [compound 1791] | > 15
CC1(C)CC(NC(=O)c2cn3c4c(c(NCCN5CCCC5)c(F)cc4c2=O)Oc2ccccc2-3)CC(C)(C)N1 [compound 1603] | > 15
CN(C)CCCCNC(=O)c1cn2c3c(c(N4CCC(NC(=O)OC(C)(C)C)C4)c(F)cc3c1=O)Oc1ccccc1-2 (stereo not shown) [compound 1588] | > 15
CN1CCN(CCCNc2c(F)cc3c(=O)c(C(=O)N4CCN(C)CC4)cn4c3c2Oc2ccccc2-4)CC1 [compound 1582] | > 15
CC(C)(C)OC(=O)NC1CCN(c2c(F)cc3c(=O)c(C(=O)NCCN4CCOCC4)cn4c3c2Oc2ccccc2-4)C1 (stereo not shown) [compound 1584] | > 15
O=C(NCCN1CCCC1)c1cn2c3c(c(N4CCN(C(=O)C(F)(F)F)CC4)c(F)cc3c1=O)Oc1cc(Cl)ccc1-2 [compound 1821] | 10
O=C(NCCN1CCOCC1)c1cn2c3c(c(N4CCC(c5cnccn5)C4)c(F)cc3c1=O)Oc1cc(Cl)ccc1-2 (stereo not shown) [compound 1790] | > 15

More lines, now with the values ahead:

IC50 [µM] | SMILES
1.75 | CC(CNc1c(F)cc2c(=O)c(C(=O)NCCC3CCCN3C)cn3c2c1Oc1cc2ccccc2cc1-3)c1ccccc1 (stereo not shown) [compound 1662]
4.8 | CN1CCCC1CCNC(=O)c1cn2c3c(c(N4CCC(c5cnccn5)C4)c(F)cc3c1=O)Oc1ccc(Cl)cc1-2 (stereo not shown) [compound 1764]
0.75 | CC1CCCC(C)N1CCCNC(=O)c1cn2c3c(c(N4CCC(N)C4)c(F)cc3c1=O)Oc1cc3ccccc3cc1-2 (stereo not shown) [compound 1713]
> 15 | CCN(CC)CCCC(C)NC(=O)c1cn2c3c(c(N4CC5CCCNC5C4)c(F)cc3c1=O)Oc1ccccc1-2 (stereo not shown) [compound 1729]
2.5 | COc1cccc(CCNc2c(F)cc3c(=O)c(C(=O)NCCC4CCCN4C)cn4c3c2Oc2cc3ccccc3cc2-4)c1OC (stereo not shown) [compound 1673]
10 | CN1CCCC1CCNC(=O)c1cn2c3c(c([S+]([O-])CCc4cnccn4)c(F)cc3c1=O)Oc1cc3ccccc3cc1-2 (stereo not shown) [compound 1769]
1 | N=C(N)NCCCCNC(=O)c1cn2c3c(c(N4CC5CCCNC5C4)c(F)cc3c1=O)Oc1cc3ccccc3cc1-2 (stereo not shown) [compound 1648]
0.75 | CN1CCCC1CCNC(=O)c1cn2c3c(c(N4CCC(N5CCCC5)CC4)c(F)cc3c1=O)Oc1cc3ccccc3cc1-2 (stereo not shown) [compound 1492]
0.34 | N=C(N)NCCNC(=O)c1cn2c3c(c(NCCN4CCCC4)c(F)cc3c1=O)Oc1cc3ccccc3cc1-2 [compound 1653]
0.75 | CN1CCCC1CCNC(=O)c1cn2c3c(c(N4C[C@@H](N)[C@H](c5ccccc5)C4)c(F)cc3c1=O)Oc1cc3ccccc3cc1-2 (stereo partly shown) [compound 1618]

Same assay, conditions: read-out: Stop Data c-Myc μM; concentration at which 50% of the DNA was arrested (arrested:full-length 1:1)

SMILES | IC50 [µM]
CN1CCN(C(=O)c2cn3c4cc5c(=O)c6ccccc6c(=O)c5cc4oc4c(N5CCC(N)C5)c(F)cc(c2=O)c43)CC1 (stereo not shown) [compound 92] | 2.5
CC(C)(C)OC(=O)N[C@H]1CCN(c2c(F)cc3c(=O)c(C(=O)NCCCN4CCOCC4)cn4c5cc6c(cc5oc2c34)c(=O)c2ccccc26)C1 [compound 204] | 1.75
O=C(NCCCN1CCOCC1)c1cn2c3c(c(NCCN4CCCC4)ccc3c1=O)Oc1cc3ccccc3cc1-2 [compound 267] | 1.75
CC(=O)N[C@@H]1CCN(c2c(F)cc3c(=O)c(C(=O)NCCCN4CCOCC4)cn4c3c2Oc2cc3c(cc2-4)oc2ccccc23)C1 [compound 178] | 1.75
O=C(NCCN1CCCC1)c1cn2c3cc4c(cc3oc3c(N5CC6CCCNC6C5)c(F)cc(c1=O)c32)c(=O)c1ccccc14 (stereo not shown) [compound 590] | 0.18
CN(C)CCCCNC(=O)c1cn2c3cc4c(=O)c5ccccc5c(=O)c4cc3oc3c(NCCCN4CCOCC4)c(F)cc(c1=O)c32 [compound 167] | 1.75
O=C(O)c1cn2c3c(c(NCCCN4CCOCC4)c(F)cc3c1=O)Oc1cc3c(O)ncnc3cc1-2 [compound 12] | 1.75
N[C@@H]1CCN(C(=O)c2cn3c4c(c(NCCN5CCCC5)c(F)cc4c2=O)Oc2c-3ccc3ccccc23)C1 [compound 86] | 2.5
O=C(Nc1nc2ccccc2s1)c1cn2c3c(c(NCCN4CCCC4)c(F)cc3c1=O)Oc1ccccc1-2 [compound 118] | 1.75
CN1CCN(CCCNc2c(F)cc3c(=O)c(C(=O)N4CCN(C)CC4)cn4c5cc6c(=O)c7ccccc7c(=O)c6cc5oc2c34)CC1 [compound 170] | 1.75
CN(C)CCN(Cc1ccccc1)C(=O)c1cn2c3c(c(N4CCC(N)C4)c(F)cc3c1=O)Oc1cc3ccccc3cc1-2 (stereo not shown) [compound 194] | 1.75

The remaining lines, values ahead:

IC50 [µM] | SMILES
1.75 | CN1CCCC1CCNC(=O)c1cn2c3c(c(NCCc4c[nH]c5ccccc45)c(F)cc3c1=O)Oc1cc3ccccc3cc1-2 (stereo not shown) [compound 287]
2.5 | CC(C)(C)OC(=O)N[C@@H]1CCN(c2c(F)cc3c(=O)c(C(=O)NCCCN4CCOCC4)cn4c3c2Oc2cc3ccccc3cc2-4)C1 [compound 62]
1.75 | CN1CCCC1CCNC(=O)c1cn2c3c(c(N4CC[C@@H](NC(=O)OC(C)(C)C)C4)c(F)cc3c1=O)Oc1c-2ccc2ccccc12 (stereo partly shown) [compound 132]
1.75 | CC1CCCN(CCCNC(=O)c2cn3c4c(c(N5CCC(N)C5)c(F)cc4c2=O)Oc2cc4ccccc4cc2-3)C1 (stereo not shown) [compound 301]
1 | CC(C)NCCCNc1c(F)cc2c(=O)c(C(=O)N3CCOCC3)cn3c2c1Oc1cc2ccccc2cc1-3 [compound 316]
0.94 | CN1CCC[C@H]1CCNC(=O)c1cn2c3c(c(N4CCC(c5cnccn5)C4)c(F)cc3c1=O)Oc1cc3ccccc3cc1-2 (stereo partly shown) [compound 339]
1.75 | CC(C)(C)OC(=O)NC1CCN(c2c(F)cc3c(=O)c(C(=O)NCCc4ccc(N)cc4)cn4c3c2Oc2cc3ccccc3cc2-4)C1 (stereo not shown) [compound 183]
0.75 | CCN(CC)CCCC(C)Nc1c(F)cc2c(=O)c(C(=O)NCCC3CCCN3C)cn3c2c1Oc1cc2ccccc2cc1-3 (stereo not shown) [compound 436]
0.75 | CN1CCCC1CCNC(=O)c1cn2c3c(c(NCCN4CCCCC4)c(F)cc3c1=O)Oc1cc3ccccc3cc1-2 (stereo not shown) [compound 432]
1.75 | CN1CCCC1CCNC(=O)c1cn2c3c(c(Nc4ccccc4N4CCOCC4)c(F)cc3c1=O)Oc1cc3ccccc3cc1-2 (stereo not shown) [compound 264]
1.75 | CN1CCCC1CCNC(=O)c1cn2c3c(c(N)c(F)c(NCCCN4CCOCC4)c3c1=O)Oc1cc3ccccc3cc1-2 (stereo not shown) [compound 191]
0.9 | CN1CCN(CCCNC(=O)c2cn3c4c(c(NCCCN5CCN(C)CC5)c(F)cc4c2=O)Oc2cc4ccccc4cc2-3)CC1 [compound 342]
